Values quoted from earlier work in patent publication US5480779A (priority 1988, dated 1996).

target: peptidyl-prolyl cis-trans-isomerase (Sus scrofa, UniProt P62936)
Sequence (P62936 whole entry): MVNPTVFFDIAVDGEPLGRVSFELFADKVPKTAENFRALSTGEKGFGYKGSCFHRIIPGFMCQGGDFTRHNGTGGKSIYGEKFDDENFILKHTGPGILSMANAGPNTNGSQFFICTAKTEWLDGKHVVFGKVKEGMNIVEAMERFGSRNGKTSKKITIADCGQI

Row | Compound | inactivation / inhibition of the enzyme
1 | CCCCCCCCCCCCOS(=O)(=O)[O-].[Na+] [sodium dodecylsulfate] | strongly inactivated
2 | O=C(O)c1cc[c]([Hg][Cl])cc1 [p-chloromercuribenzoate] | strongly inactivated
3 | chloroiosylamidophenylbutane | not inhibited
